Measured values from patent EP0498899A1, “Use of N-(mercaptoacyl)-amino acids as dopaminergic und gonadoptropic medicaments” (Weth, Gosbert Dr. med., Dr. rer. nat., priority 1990, dated 1992).

Tests used:
Dopamin = experiment: Determination of dopamine in blood plasma of patients after administration (method of G. Weth); assay type: in vivo, Patienten; details: for Dopamin MW: 25 mg Captopril, mean of 12 patients, value at time 0: 110
Source text: (§1) Die Dopaminbestimmung wurde nach G. Weth, "Das Verhalten der Neurotransmitter....", Dissertation, Würzburg, 1987, S. 123-138, durchgeführt. Die Bestimmung von Prolaktin wurde radioimmunologisch nach den Methoden von P. Hwang, H. Guyda, H. Friesen, Proc. Nat. Sci. (USA) 1971, 68/8, S.1902-06 durchgeführt.
(§2) Für die Untersuchungen wurden 2x12 Patienten (Alter 75±10 Jahre), die unter Durchblutungsstörungen, sowohl peripheren als auch zentralen, litten, herangezogen. […]
Die Bestimmung der Dopamin- und Prolaktinwerte wurde wie folgt vorgenommen. In angegebenen Zeitabschnitten von 15, 30, 60 und 120 Minuten wurden dem Patienten je 5 ml Blut entnommen und in speziell präparierte Vakuum-Container, die Glutathion und EDTA enthielten, gegeben. Das Blut wurde sofort auf 2 °C abgekühlt und bei 2 °C zentrifugiert. Das überstehende Blutplasma wurde bis zur Dopamin- und Prolaktinbestimmung bei minus 80 °C tiefgefroren.
(§3) In den Tabellen sind die Ergebnisse der vorstehend angeführten pharmakologischen Untersuchungen zusammengestellt. Die Dimensionsangaben betragen für Dopamin pg/ml bzw. ng/l und für Prolaktin ng/ml.

Prolaktin = experiment: Radioimmunological determination of prolactin in blood plasma of patients after administration; assay type: in vivo, Patienten; details: for Prolaktin MW: 25 mg Captopril, mean of 12 patients; for Prolaktinsenkung (Effekt): Fig. 2, result in words
Source text: as §1, §2
Die Bestimmung der Dopamin- und Prolaktinwerte wurde wie folgt vorgenommen. […] Das Blut wurde sofort auf 2 °C abgekühlt und bei 2 °C zentrifugiert. Das überstehende Blutplasma wurde bis zur Dopamin- und Prolaktinbestimmung bei minus 80 °C tiefgefroren.
as §3

C[C@H](CS)C(=O)N1CCC[C@H]1C(=O)O [Captopril]
Höhepunkt des Anstiegs von Dopamin (time) (Dopamin; 25 mg Captopril oral per patient (mean weight 60 kg), Fig. 1): ~60 min | Dopamin MW (Dopamin; 15 min after dosing): 163 pg/mL | Dopamin MW (Dopamin; 30 min after dosing): 210 pg/mL | Dopamin MW (Dopamin; 60 min after dosing): 291 pg/mL | Dopamin MW (Dopamin; 90 min after dosing): 250 pg/mL | Dopamin MW (Dopamin; 120 min after dosing): 211 pg/mL | Maximum der Dopaminfreisetzung (time) (Dopamin; 12,5 mg Captopril, Fig. 3): 60 min | Anstieg von Dopamin (Dopamin; 15 min after 25 mg Captopril oral per patient (mean weight 60 kg), Fig. 1, result in words): signifikanten Anstieg | Anstieg von Dopamin (Dopamin; 30 min after 25 mg Captopril, result in words): hochsignifikanten Anstieg | Anstieg (Dopaminfreisetzung) (Dopamin; 30 min after 12,5 mg Captopril, Fig. 3, result in words): signifikant | Prolaktin MW (Prolaktin; 15 min after dosing, value at time 0: 14,3): 13,6 ng/ml | Prolaktin MW (Prolaktin; 30 min after dosing, value at time 0: 14,8): 12,3 ng/ml | Prolaktin MW (Prolaktin; 60 min after dosing, value at time 0: 14,8): 9,0 ng/ml | Prolaktin MW (Prolaktin; 90 min after dosing, value at time 0: 14,8): 8,4 ng/ml | Prolaktin MW (Prolaktin; 120 min after dosing, value at time 0: 14,8): 7,9 ng/ml | Prolaktinsenkung (Effekt) (Prolaktin; 15 min after 25 mg Captopril oral per patient (mean weight 60 kg)): signifikanter | Prolaktinsenkung (Effekt) (Prolaktin; 60 min after 25 mg Captopril oral per patient (mean weight 60 kg)): hochsignifikanter
